Data taken from patent US9795681B2, “Tamper resistant dosage form comprising an adsorbent and an adverse agent” (Purdue Pharma L.P., priority 2004, dated 2017).
Counter-ions that a name gives are not always drawn.

Key:
[1] = administered orally; cited from earlier work
[2] = Adsorption of naltrexone hydrochloride onto activated charcoal from 0.1N HCl, HPLC of liquid phase; assay type: physicochemical; conditions: 37° C.; for Naltrexone adsorbed from solution / Naltrexone adsorbed onto the activated charcoal / Naltrexone content in fluid / Naltrexone content in fluid, HPLC area %: 0.1N aqueous HCl
Experimental: Example 1 describes a non-limiting method for making an adsorbent/adverse agent. The adsorbent used was DARCO activated charcoal obtained from EM Science, an affiliate of Merck KGaA of Darmstadt, Germany. The DARCO activated charcoal used was 20 to 40 mesh black granular charcoal which passed the USP absorptive power test (see The United States Pharmacopeia, 26:404 (2003)) for activated charcoal.
Adsorption of naltrexone: The activated charcoal (5.02 g) was added to a solution of naltrexone hydrochloride (504.26 mg) (obtained from Mallinkrodt, St. Louis, Mo.) in 0.1N HCI (900 mL). The resultant mixture was stirred at 100 rpm for 120 h at 37° C., and the adsorption (or uptake) of naltrexone hydrochloride into the activated charcoal was monitored by measuring the decrease in concentration of the naltrexone hydrochloride in the liquid phase using high performance liquid chromatography (HPLC). The data was used to calculate the amount of naltrexone adsorbed onto the activated charcoal, e.g., after 2 h, as follows: […]

[3] = Dynamic desorption of the Charcoal/Naltrexone by washing with 0.1N HCl; assay type: physicochemical; conditions: 1 L aliquots of 0.1N HCl, 25° C.
Experimental: IN HCI. The concentration of naltrexone hydrochloride in the wash filtrates was measured using HPLC as described above.

C[C@H]1[C@H]2Cc3ccc(O)cc3[C@]1(C)CCN2CC1CC1 [cyclazocine]
duration of action [1]: ~24 h

O=C1CC[C@@]2(O)[C@H]3Cc4ccc(O)c5c4[C@@]2(CCN3CC2CC2)[C@H]1O5 [naltrexone hydrochloride]
Naltrexone adsorbed from solution ([2]; time 0 min): 0.00% | Naltrexone adsorbed onto the activated charcoal ([2]; time 0 min): 0.00 mg | Naltrexone content in fluid ([2]; time 0 min): 504.26 mg | Naltrexone content in fluid, HPLC area % ([2]; time 0 min): 4.836 HPLC area % | Naltrexone adsorbed from solution ([2]; time 10 min): 23.34% | Naltrexone adsorbed onto the activated charcoal ([2]; time 10 min): 117.69 mg | Naltrexone content in fluid ([2]; time 10 min): 386.57 mg | Naltrexone content in fluid, HPLC area % ([2]; time 10 min): 3.707 HPLC area % | Naltrexone adsorbed from solution ([2]; time 20 min): 32.01% | Naltrexone adsorbed onto the activated charcoal ([2]; time 20 min): 161.39 mg | Naltrexone content in fluid ([2]; time 20 min): 342.87 mg | Naltrexone content in fluid, HPLC area % ([2]; time 20 min): 3.288 HPLC area % | Naltrexone adsorbed from solution ([2]; time 30 min): 37.62% | Naltrexone adsorbed onto the activated charcoal ([2]; time 30 min): 189.69 mg | Naltrexone content in fluid ([2]; time 30 min): 314.57 mg | Naltrexone content in fluid, HPLC area % ([2]; time 30 min): 3.017 HPLC area % | Naltrexone adsorbed from solution ([2]; time 40 min): 41.36% | Naltrexone adsorbed onto the activated charcoal ([2]; time 40 min): 208.55 mg | Naltrexone content in fluid ([2]; time 40 min): 295.71 mg | Naltrexone content in fluid, HPLC area % ([2]; time 40 min): 2.836 HPLC area % | Naltrexone adsorbed from solution ([2]; time 50 min): 45.37% | Naltrexone adsorbed onto the activated charcoal ([2]; time 50 min): 228.81 mg | Naltrexone content in fluid ([2]; time 50 min): 275.45 mg | Naltrexone content in fluid, HPLC area % ([2]; time 50 min): 2.642 HPLC area % | Naltrexone adsorbed from solution ([2]; time 60 min): 47.75% | Naltrexone adsorbed onto the activated charcoal ([2]; time 60 min): 240.76 mg | Naltrexone content in fluid ([2]; time 60 min): 263.50 mg | Naltrexone content in fluid, HPLC area % ([2]; time 60 min): 2.527 HPLC area % | Naltrexone adsorbed from solution ([2]; time 70 min): 49.10% | Naltrexone adsorbed onto the activated charcoal ([2]; time 70 min): 247.60 mg | Naltrexone content in fluid ([2]; time 70 min): 256.66 mg | Naltrexone content in fluid, HPLC area % ([2]; time 70 min): 2.461 HPLC area % | Naltrexone adsorbed from solution ([2]; time 80 min): 50.76% | Naltrexone adsorbed onto the activated charcoal ([2]; time 80 min): 255.97 mg | Naltrexone content in fluid ([2]; time 80 min): 248.29 mg | Naltrexone content in fluid, HPLC area % ([2]; time 80 min): 2.381 HPLC area % | Naltrexone adsorbed from solution ([2]; time 90 min): 52.98% | Naltrexone adsorbed onto the activated charcoal ([2]; time 90 min): 267.16 mg | Naltrexone content in fluid ([2]; time 90 min): 237.10 mg | Naltrexone content in fluid, HPLC area % ([2]; time 90 min): 2.274 HPLC area % | Naltrexone adsorbed from solution ([2]; time 100 min): 54.38% | Naltrexone adsorbed onto the activated charcoal ([2]; time 100 min): 274.20 mg | Naltrexone content in fluid ([2]; time 100 min): 230.06 mg | Naltrexone content in fluid, HPLC area % ([2]; time 100 min): 2.206 HPLC area % | Naltrexone adsorbed from solution ([2]; time 120 min): 55.36% | Naltrexone adsorbed onto the activated charcoal ([2]; time 120 min): 279.16 mg | Naltrexone content in fluid ([2]; time 120 min): 225.10 mg | Naltrexone content in fluid, HPLC area % ([2]; time 120 min): 2.159 HPLC area % | time within which substantially all of the naltrexone adsorption was completed ([2]; onto activated charcoal, 0.1N HCl): ≤ 1.5 h | wash steps during which the majority of the desorption of naltrexone hydrochloride occurred [3]: ≤ 18 wash steps

O=C1CC[C@@]2(O)[C@H]3Cc4ccc(O)c5c4[C@@]2(CCN3CC2CC2)[C@H]1O5 [naltrexone]
duration of action [1]: ~24 h
